Measurements as given in paper PMC5494507, “γ‐Secretase inhibitors in cancer clinical trials are pharmacologically and functionally distinct” (EMBO Molecular Medicine, 2017).
Like-named read-outs stand apart in the source and are kept apart here.

Columns and labels:
[1] = system: Aβ40; design: method as in ref Appendix Table S1 (Gavai et al, 2015; Dovey et al, 2001; Cook et al, 2010; Krop et al, 2012; Wei et al, 2010; Luistro et al, 2009; Mitani et al, 2012); conditions: ref Appendix Table S1 (Gavai et al, 2015; Dovey et al, 2001; Cook et al, 2010; Krop et al, 2012; Wei et al, 2010; Luistro et al, 2009; Mitani et al, 2012); read-out: Reported IC50s Aβ40; cited from earlier work
[2] = system: cNOTCH1sub; assay: Cell-based γ-secretase cleavage assay, cNOTCH1sub in H4 cells (Aβ-like peptide ELISA); design: species or system human; conditions: Aβ-like peptide in media, GSI overnight
Description: Using these cell‐based γ‐secretase cleavage assays, we systematically investigated the substrate inhibition profile of BMS‐906024, MK‐0752, PF‐308414, RO4929097, Semagacestat, and DAPT. We treated H4 cells stably expressing cNOTCH1‐4sub with 4 pM to 10 μM of GSIs (Fig 5A and Table 2) and measured the Aβ‐like peptide secreted into the media.
(§1) For the cell‐based assay, all substrates contain a human NOTCH4 signal peptide sequence ([…]), amyloid β peptide (Aβ1–25/K16A) epitope tag followed by the juxtamembrane region (JMD) of the given substrate and a FLAG tag ([…]) at the COOH‐terminal. K16A mutant was created to decrease potential α‐secretase cleavage. The cDNAs were generated by gene synthesis conducted by Genscript. A schematic representation of the substrates is provided in Fig 4A, and sequences of the cDNAs and the proteins are provided in Appendix Fig S6. For clarity, these substrates are referred to as cell‐based assay substrates (e.g., NOTCH1 is cNOTCH1sub). Substrate cDNAs were cloned into pCDNA3.1 (Invitrogen, Carlsbad, CA, USA) for expression in H4 cells (ATCC, Manassas, VA).
(§2) H4 cells were cultured in Opti‐mem media (Thermo‐Fisher) supplemented with Hyclone 6% fetal bovine serum (GE, Logan, Utah, USA) and 1% penicillin/streptomycin (Life Technologies, Grand Island, NY, USA). pCDNA3.1 plasmids containing the substrate cDNAs were transfected into H4 cells using FuGENE HD reagent (Madison, WI, USA). Stable cell lines were established using G418 selection. […] Cells and conditioned media were used for WB, IP, and ELISA.
(§3) Sandwich ELISAs used for Aβ detection were performed as previously described (Murphy et al, 1999; Ran et al, 2014). Briefly, Aβ and Aβ‐like peptides in conditioned media were captured with Ab5 antibody and detected with horseradish peroxidase labeled mAb 4G8 (Biolegend). Synthetic Aβ1‐40 was used as standard. All ELISAs were developed with TMB substrate (KPL, Gaithersburg, Maryland, USA). Bis‐Tris precast gels (Biorad, Hercules, CA, USA) were used for all SDS–PAGE. Monoclonal anti‐FLAG M2 antibody (Sigma) and Aβ1‐16 antibody 6E10 (Covance) were used for Western blotting at 1:1,000 dilution. Anti‐CD74 In‐1 antibody (BD Bioscience, San Jose, CA, USA) was used for A20 cell lysate Western blotting at dilution of 1:1,000. MDA‐MB‐231 cell extracts were prepared by lysing cells in RIPA buffer containing protease and phosphatase inhibitors. The lysates were kept on ice for 30 min and vortexed every 10 min, and then centrifuged at 4°C for 10 min at 1,000 g. The supernatants were collected, and protein concentrations were determined by Bradford Assay. Pan‐NOTCH1 antibody (C‐20) (Santa Cruz Biotechnology) and cleaved NOTCH1 (Val1744) antibody ([…]) were used at 1:500 and 1:100 dilution in the test of endogenous NOTCH1 inhibition with β‐actin expression used as loading control. β‐actin antibody was used at 1:1,000 dilution (Sigma). Band intensities normalized for actin using densitometry analysis with ImageJ Software (NIH, USA).

[3] = target: T1, SPPL2a (Mus musculus, UniProt Q9JJF9); assay: Endogenous CD74 P8 turnover in A20 cells (Western blot, In-1 antibody), biomarker for SPPL2a cleavage; type: cell-based; conditions: 16 h
T1 construct: To verify the finding in a non‐overexpressing cell line; endogenous in cells; host or cells: A20 (ATCC TIB-208)
T1 sequence (Q9JJF9 26-523): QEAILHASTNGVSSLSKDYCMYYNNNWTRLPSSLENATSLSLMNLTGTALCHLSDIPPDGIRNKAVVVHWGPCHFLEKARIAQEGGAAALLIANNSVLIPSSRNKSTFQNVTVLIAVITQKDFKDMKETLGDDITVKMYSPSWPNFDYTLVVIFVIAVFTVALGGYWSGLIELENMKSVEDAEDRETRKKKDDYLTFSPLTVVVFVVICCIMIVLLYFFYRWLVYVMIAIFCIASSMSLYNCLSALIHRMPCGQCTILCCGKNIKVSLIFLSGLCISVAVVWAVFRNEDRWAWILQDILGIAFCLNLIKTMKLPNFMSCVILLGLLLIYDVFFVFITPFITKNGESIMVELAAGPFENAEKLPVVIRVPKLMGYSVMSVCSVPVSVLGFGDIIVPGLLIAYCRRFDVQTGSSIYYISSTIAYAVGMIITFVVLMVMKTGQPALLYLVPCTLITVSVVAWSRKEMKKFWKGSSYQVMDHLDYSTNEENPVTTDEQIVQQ
Description: To verify the finding in a non‐overexpressing cell line, we applied the inhibitors to the mouse B lymphocyte cell line A20 (ATCC TIB‐208).
SPPL2a, SPPL2b, SPP, and chimeric substrate FBA were generated as previously described (Ran et al, 2015). A20 cells (TIB‐208; ATCC, Manassas, VA, USA) were cultured in RPMI‐1640 medium (ATCC) supplied with 10% fetal bovine serum, 1% penicillin/streptomycin, and 0.05 mM 2‐mercaptoethanol (Life Technologies). Various concentrations of GSIs and (ZLL)2‐ketone as indicated in figures were applied to transfected HEK 293t cells at 70–90% confluence or A20 cells at a density of 5 × 10^5 cells/ml with fresh media in 48‐well format for 16 h. Cells and conditioned media were used for WB, IP, and ELISA.
as §3

[4] = system: cAPPC100sub; assay: Cell-based γ-secretase cleavage assay, cAPPC100sub stably overexpressing cells (Aβ ELISA); conditions: for low-dose potentiation of cleavage, cAPPC100sub: cAPPC100sub overexpressing cells
Excerpt: We next tested all GSIs on cAPPC100sub and full‐length APP stably overexpressing cells. […] The low‐dose potentiation of γ‐secretase cleavage was further mechanistically probed using in vitro assays with recombinant substrates and IP‐MS.
as §1, §2, §3

[5] = stably overexpressing cells, Aβ ELISA, read-out: IC50 cC100sub
[6] = value in parentheses, read-out: IC50 cC100sub, from curves excluding the Aβ level > 120%

stabilization of CD74 8 kDa NTF P8 ([3]; 1,000 nM)	Compound	IC50 [1]	IC50 [2]	stabilization of CD74 8 kDa NTF P8 ([3]; 40 nM)	increase of Aβ production from the cAPPC100sub ([4]; 1–4 pM BMS‐906024)	IC50 [4, 5]	stabilization of CD74 8 kDa NTF P8 ([3]; at the tested dose)	low-dose potentiation of cleavage, cAPPC100sub [4]	IC50 [4, 6]
–	CN1C(=O)[C@@H](NC(=O)[C@H](CCC(F)(F)F)[C@H](CCC(F)(F)F)C(N)=O)N=C(c2ccccc2)c2ccccc21 [BMS‐906024]	1.6 nM	0.29 nM	greatly stabilized	~ 1.5 fold	1.46 nM	–	–	–
–	O=C(O)CC[C@H]1CC[C@@](c2cc(F)ccc2F)(S(=O)(=O)c2ccc(Cl)cc2)CC1 [MK‐0752]	5 nM	87.4 nM	–	–	336 nM	did not show stabilization activity	low‐dose potentiation of cleavage was observed	154 nM
–	CCC[C@H](N[C@H]1CCc2cc(F)cc(F)c2C1)C(=O)Nc1cn(C(C)(C)CNCC(C)(C)C)cn1 [PF‐3084014]	6.2 nM	0.6 nM	slightly stabilized	–	2.47 nM	–	–	1.34 nM
–	CC(C)(C(=O)NCC(F)(F)C(F)(F)F)C(=O)N[C@@H]1C(=O)Nc2ccccc2-c2ccccc21 [RO4929097]	14 nM	0.46 nM	greatly stabilized	–	26.6 nM	–	low‐dose potentiation of cleavage was observed	24 nM
weak stabilization	CC(C)[C@H](O)C(=O)N[C@@H](C)C(=O)N[C@@H]1C(=O)N(C)CCc2ccccc21 [Semagacestat]	12.1 nM	7.02 nM	–	–	175 nM	–	low‐dose potentiation of cleavage was observed	105 nM
